Patent US8703776B2 (Cymabay Therapeutics, Inc., priority 2011, dated 2014)

Each compound was assayed against T1, human GPR131 (Homo sapiens, UniProt Q8TDU6) (assay: Stimulation of cAMP in stable cell line expressing human GPR131 (FRET cAMP kit)). Conditions: 0.5 h; 1.1 μM compound, relative to maximal stimulatory activity of lithocholic acid at 3.3 μM; 30 minutes at 37° C.; read-out: Percent Activity @ 1.1 μM (of 3.3 uM LCA) (%).
T1 construct: expressed in transfected cells
T1 sequence (Q8TDU6 1-330): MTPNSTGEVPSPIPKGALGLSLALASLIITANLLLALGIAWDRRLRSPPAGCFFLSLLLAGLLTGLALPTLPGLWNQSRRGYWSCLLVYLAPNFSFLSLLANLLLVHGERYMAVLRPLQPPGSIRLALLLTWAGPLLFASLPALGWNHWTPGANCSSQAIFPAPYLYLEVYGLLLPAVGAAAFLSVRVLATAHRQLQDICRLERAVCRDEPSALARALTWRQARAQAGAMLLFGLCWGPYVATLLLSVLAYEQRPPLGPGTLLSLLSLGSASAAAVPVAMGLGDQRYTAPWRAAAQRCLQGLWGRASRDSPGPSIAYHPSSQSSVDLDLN
Assay type: cell-based
Experimental: This assay was developed using a stable cell line expressing human GPR131.
To measure cAMP activity in response to GPR131 agonists, GPR131 cells suspended in DMEM/F12 medium with 1 mM IBMX were seeded in 384 well plates at 5000 cells per well. After incubating with test compounds at 37° C. for 30 minutes cAMP was measured using a fluorescene resonance energy transfer cAMP kit from Cis Bio (Bedford, Mass.) according to the manufacturer's instructions. Briefly, cells were lysed, and cAMP levels determined by competitive immunoassay using D2 labeled cAMP, and europium cryptate tagged anti cAMP antibody. Decreases in the FRET signal (fluorescence ratio (665 nm/620 […]) correspond to increases in intracellular cAMP levels.
Activities of test compounds in Table 1 below are expressed as % activity at 1.1 μM compound compared to the maximal stimulatory activity of lithocholic acid (LCA) (determined at 3.3 μM LCA)

SMILES | activation at 1.1 µM [%]
CN(Cc1ccncc1)C(=O)c1cnc(SCc2c(F)cccc2Cl)n1C1CCCCC1 [Compound 565, 2-((2-Chloro-6-fluorobenzyl)thio)-1-cyclohexyl-N-methyl-N-(pyridin-4-ylmethyl)-1H-imidazole-5-carboxamide] | 99
Cc1cc(CN(C)C(=O)c2cnc(SCCc3ccc(F)c(Cl)c3)n2-c2ccc(F)cc2)ccn1 [Compound 583] | 96
CN(Cc1ccncc1)C(=O)c1cnc(SCc2c(F)cccc2Cl)n1-c1cccc(F)c1 [Compound 564, 2-((2-Chloro-6-fluorobenzyl)thio)-1-(3-fluorophenyl)-N-methyl-N-(pyridin-4-ylmethyl)-1H-imidazole-5-carboxamide] | 99
COc1ccc(Cl)c(CSc2ncc(C(=O)N(C)Cc3ccncc3)n2-c2ccc(F)cc2)c1F [Compound 612, 2-((6-Chloro-2-fluoro-3-methoxybenzyl)thio)-1-(4-fluorophenyl)-N-methyl-N-(pyridin-4-ylmethyl)-1H-imidazole-5-carboxamide] | 100
CN(Cc1ccncc1)C(=O)c1cnc(SCc2c(F)ccc(F)c2F)n1-c1ccc(F)cc1 [Compound 518, 1-(4-Fluorophenyl)-N-methyl-N-(pyridin-4-ylmethyl)-2-((2,3,6-trifluorobenzyl)thio)-1H-imidazole-5-carboxamide] | 100
CN(Cc1ccncc1)C(=O)c1cnc(SCc2ccc(Cl)cc2C(F)(F)F)n1-c1ccc(F)cc1 [Compound 609, 2-((4-Chloro-2-(trifluoromethyl)benzyl)thio)-1-(4-fluorophenyl)-N-methyl-N-(pyridin-4-ylmethyl)-1H-imidazole-5-carboxamide] | 86
CN(Cc1ccncc1)C(=O)c1cnc(SCc2c(F)cccc2Cl)n1-c1ccc(Cl)cc1 [Compound 556, 2-((2-Chloro-6-fluorobenzyl)thio)-1-(4-chlorophenyl)-N-methyl-N-(pyridin-4-ylmethyl)-1H-imidazole-5-carboxamide] | 99
CN(Cc1ccncc1)C(=O)c1cnc(SCc2c(F)cccc2Cl)n1-c1ccc(F)cc1 [Compound 533, 2-((2-Chloro-6-fluorobenzyl)thio)-1-(4-fluorophenyl)-N-methyl-N-(pyridin-4-ylmethyl)-1H-imidazole-5-carboxamide] | 100
Cc1nc(C)c(CN(C)C(=O)c2cnc(SCc3c(F)ccc(F)c3F)n2-c2ccc(F)cc2)s1 [Compound 522, N-((2,4-Dimethylthiazol-5-yl)methyl)-1-(4-fluorophenyl)-N-methyl-2-((2,3,6-trifluorobenzyl)thio)-1H-imidazole-5-carboxamide] | 100
Cc1ccc(F)c(CSc2ncc(C(=O)N(C)Cc3ccncc3)n2-c2ccc(F)cc2)c1Cl [Compound 620, 2-((2-Chloro-6-fluoro-3-methylbenzyl)thio)-1-(4-fluorophenyl)-N-methyl-N-(pyridin-4-ylmethyl)-1H-imidazole-5-carboxamide] | 99
Cc1cc(CN(C)C(=O)c2cnc(S(=O)(=O)CCc3ccc(F)c(Cl)c3)n2-c2ccc(F)cc2)ccn1 [Compound 586, 2-((3-Chloro-4-fluorophenethyl)sulfonyl)-1-(4-fluorophenyl)-N-methyl-N-((2-methylpyridin-4-yl)methyl)-1H-imidazole-5-carboxamide] | 86
CN(Cc1ccncc1)C(=O)c1cnc(SCc2cc(F)ccc2F)n1-c1ccc(F)cc1 [Compound 611, 2-((2,5-Difluorobenzyl)thio)-1-(4-fluorophenyl)-N-methyl-N-(pyridin-4-ylmethyl)-1H-imidazole-5-carboxamide] | 99
COc1ccc(CN(C)C(=O)c2cnc(SCc3c(F)ccc(F)c3F)n2-c2ccc(F)cc2)cc1OC [Compound 507, N-(3,4-Dimethoxybenzyl)-1-(4-fluorophenyl)-N-methyl-2-((2,3,6-trifluorobenzyl)thio)-1H-imidazole-5-carboxamide] | 93
COc1ccc(Cl)c(CSc2ncc(C(=O)N3CCCC3c3ccncc3)n2-c2ccc(F)cc2)c1F (stereo not shown) [Compound 591, (2-((6-Chloro-2-fluoro-3-methoxybenzyl)thio)-1-(4-fluorophenyl)-1H-imidazol-5-yl)(2-(pyridin-4-yl)pyrrolidin-1-yl)methanone] | 94
CN(Cc1ccncc1)C(=O)c1cnc(SCc2cccc(C(F)(F)F)c2F)n1-c1ccc(F)cc1 [Compound 610, 2-((2-Fluoro-3-(trifluoromethyl)benzyl)thio)-1-(4-fluorophenyl)-N-methyl-N-(pyridin-4-ylmethyl)-1H-imidazole-5-carboxamide] | 100
CN(Cc1ccncc1)C(=O)c1cnc(SCc2cc(Cl)ccc2F)n1-c1ccc(F)cc1 [Compound 616, 2-((5-Chloro-2-fluorobenzyl)thio)-1-(4-fluorophenyl)-N-methyl-N-(pyridin-4-ylmethyl)-1H-imidazole-5-carboxamide] | 100
Cc1ccc(Cl)c(CSc2nnc(C(=O)N(C)Cc3ccncc3)n2-c2ccc(F)cc2)c1F [Compound 595, 5-((6-Chloro-2-fluoro-3-methylbenzyl)thio)-4-(4-fluorophenyl)-N-methyl-N-(pyridin-4-ylmethyl)-4H-1,2,4-triazole-3-carboxamide] | 98

Results, then the compound that gave them:

activation at 1.1 µM [%] | SMILES
98 | Cc1cc(CN(C)C(=O)c2cnc(SCc3ccccc3Cl)n2-c2ccc(F)cc2)ccn1 [Compound 550, 2-((2-Chlorobenzyl)thio)-1-(4-fluorophenyl)-N-methyl-N-((2-methylpyridin-4-yl)methyl)-1H-imidazole-5-carboxamide]
82 | Cc1nn(C)cc1CNC(=O)c1cnc(SCc2c(F)ccc(F)c2F)n1-c1ccc(F)cc1 [Compound 508, N-((1,3-Dimethyl-1H-pyrazol-4-yl)methyl)-1-(4-fluorophenyl)-2-((2,3,6-trifluorobenzyl)thio)-1H-imidazole-5-carboxamide]
99 | Cc1nn(C)cc1CN(C)C(=O)c1cnc(SCc2c(F)cccc2Cl)n1-c1ccccc1 [Compound 554, 2-((2-Chloro-6-fluorobenzyl)thio)-N-((1,3-dimethyl-1H-pyrazol-4-yl)methyl)-N-methyl-1-phenyl-1H-imidazole-5-carboxamide]
100 | Cc1nn(C)cc1CN(C)Cc1cnc(SCc2c(F)ccc(F)c2F)n1-c1ccc(F)cc1 [Compound 506, 1-(1,3-Dimethyl-1H-pyrazol-4-yl)-N-((1-(4-fluorophenyl)-2-((2,3,6-trifluorobenzyl)thio)-1H-imidazol-5-yl)methyl)-N-methylmethanamine]
98 | Cc1csc(CSc2ncc(C(=O)N(C)Cc3cn(C)nc3C)n2-c2ccc(F)cc2)n1 [Compound 636, N-((1,3-Dimethyl-1H-pyrazol-4-yl)methyl)-1-(4-fluorophenyl)-N-methyl-2-(((4-methylthiazol-2-yl)methyl)thio)-1H-imidazole-5-carboxamide]
99 | Cc1nn(C)cc1CN(C)C(=O)c1cnc(SCc2ccccc2)n1-c1ccc(F)cc1 [Compound 593, 2-(Benzylthio)-N-((1,3-dimethyl-1H-pyrazol-4-yl)methyl)-1-(4-fluorophenyl)-N-methyl-1H-imidazole-5-carboxamide]
98 | Cc1nn(C)cc1CN(C)C(=O)c1cnc(SCc2ncccn2)n1-c1ccc(F)cc1 [Compound 635, N-((1,3-Dimethyl-1H-pyrazol-4-yl)methyl)-1-(4-fluorophenyl)-N-methyl-2-((pyrimidin-2-ylmethyl)thio)-1H-imidazole-5-carboxamide]
96 | Cc1nn(C)cc1C(C)N(C)C(=O)c1cnc(SCc2c(F)ccc(F)c2F)n1-c1ccc(F)cc1 (stereo not shown) [Compound 526, N-(1-(1,3-Dimethyl-1H-pyrazol-4-yl)ethyl)-1-(4-fluorophenyl)-N-methyl-2-((2,3,6-trifluorobenzyl)thio)-1H-imidazole-5-carboxamide]
91 | Cc1nn(C)cc1CN(C)C(=O)c1cnc(SCc2ncn(C)n2)n1-c1ccc(F)cc1 [Compound 634, N-((1,3-Dimethyl-1H-pyrazol-4-yl)methyl)-1-(4-fluorophenyl)-N-methyl-2-(((1-methyl-1H-1,2,4-triazol-3-yl)methyl)thio)-1H-imidazole-5-carboxamide]
100 | CCN(Cc1cn(C)nc1C)C(=O)c1cnc(SCc2c(F)ccc(F)c2F)n1-c1ccc(F)cc1 [Compound 519, N-((1,3-Dimethyl-1H-pyrazol-4-yl)methyl)-N-ethyl-1-(4-fluorophenyl)-2-((2,3,6-trifluorobenzyl)thio)-1H-imidazole-5-carboxamide]
98 | CCc1noc(CSc2ncc(C(=O)N(C)Cc3cn(C)nc3C)n2-c2ccc(F)cc2)n1 [Compound 630, N-((1,3-Dimethyl-1H-pyrazol-4-yl)methyl)-2-(((3-ethyl-1,2,4-oxadiazol-5-yl)methyl)thio)-1-(4-fluorophenyl)-N-methyl-1H-imidazole-5-carboxamide]
